Laboratory results reported in patent US20240092741A1, “COMPOSITION FOR PREVENTION OR TREATMENT OF NEUROFIBROMATOSIS TYPE 2 SYNDROME” (PRG S&TECH INC., priority 2021, published 2024).

Columns and labels:
[1] = system: NF2-transfected mouse schwannoma cells; experiment: MTT and immunoblotting in NF2-transfected mouse schwannoma cells; format: cell-based; conditions: NF2-transfected mouse schwannoma cells (FIGS. 9C, 9D)
Description: In other words, cells were seeded at a density of 2×10^5 cells/well in 12-well plates and cultured overnight before transfection. The vector (1.5 μg) was mixed with 1.5 μl of Jetpei reagent dissolved in 150 mM NaCl solution. The mixture was reacted at room temperature for 15 minutes, and then added to the cells. After 3 hours, the serum-free medium 15 was replaced with medium supplemented with 10% FBS. Cells were harvested and lysed using RIPA buffer [50 mM Tris-Cl, pH 7.5, 150 mM NaCl, 1% NP-40, 0.1% SDS, and 10% sodium deoxycholate] to examine cellular signaling. Protein concentrations in samples were measured using Bio-Rad (Hercules, CA, USA) protein assay kits and BSA standards. […] The blots were detected using an HRP-conjugated secondary antibody using ECL kit (Intron, Seoul, Korea). […] Plates were then cultured at 37° C. for 4 hours, the MTT solution was removed, the precipitated substances were dissolved using a solution (DMSO:ethanol=1:1), and an amount of formazan dye produced was quantified by measuring the absorbance at 560 nm using an ELISA microplate reader (Thermo Fisher Scientific, MA, USA).

HEI-193 cells [2] = experiment: FACS analysis and IF staining of schwann cell markers in HEI-193 cells; format: cell-based, human; conditions: 7 days, compared with TEW7197 (FIG. 12F)
Description: Cells were seeded on cover glass, washed with PBS, fixed with 4% paraformaldehyde (PFA) for 30 minutes at room temperature, and then permeabilized with 0.2% Triton X-100 at room temperature for 5 minutes. After treatment with blocking buffer [3% goat serum diluted in PBS] for 1 hour, cells were reacted with the specified antibody in the blocking buffer overnight at 4° C. Finally, the cells were reacted with secondary antibodies conjugated with FITC or rhodamine at 4° C. for 7 hours. The nuclei were stained with DAPI at room temperature for 10 minutes. After the cells were washed 3 times with PBS, the cover glass was mounted with a mounting solution (H-5501, Vector Laboratories, Cambridgeshire, UK) and immunofluorescence signals were detected using a fluorescence microscopy (Zeiss, Jena, Germany). In addition, for flow cytometry, cells were seeded in a 6-well plate and reacted with DMSO (control group), PRG-N-01 (5 μM), or TEW7197 (5 μM), respectively. After 4 days, the cells were fixed with 70% ethanol and labeled with propidium iodine. These samples were analyzed by FACS for cell-cycle analysis. […] A minimum of 10,000 cells were analyzed using an Attune NxT Flow cytometer (Thermo Fisher Scientific, Inc., Rockford, IL, USA).

HEI-193 cells [3] = experiment: Western blotting of marker proteins in HEI-193 cells; format: cell-based, human; conditions: HEI-193 cells
Description: Cells were harvested and lysed using RIPA buffer [50 mM Tris-Cl, pH 7.5, 150 mM NaCl, 1% NP-40, 0.1% SDS, and 10% sodium deoxycholate] to examine cellular signaling. Protein concentrations in samples were measured using Bio-Rad (Hercules, CA, USA) protein assay kits and BSA standards. The samples (20 μg protein per lane) were separated by sodium dodecyl sulfate-polyacrylamide gel electrophoresis (SDS-PAGE), transferred to Immobilon-P^SQ transfer membranes (Millipore Corp., MA, USA), which were then cultured with 3% skim milk-containing TBS-T buffer (Tris-HCl-based buffer containing 20 mM Tris pH 7.6, 150 mM NaCl, and 0.05% Tween 20) for 1 hour at room temperature and then reacted with primary antibody in TBS-T overnight at 4° C. The membranes were then washed and reacted with secondary horseradish peroxidase (HRP)-conjugated antibodies [goat anti-mouse, goat anti-rabbit, and mouse anti-goat antibodies (Pierce, Thermo Fisher Scientific, Inc., Rockford, IL, USA)] in TBS-T at room temperature for 2 hours. The blots were detected using an HRP-conjugated secondary antibody using ECL kit (Intron, Seoul, Korea).

mouse schwannoma cells = experiment: Allograft tumor growth assay; format: in vivo
Description: For allograft, 1×10^7 mouse schwannoma cells were seeded subcutaneously on FVB/NJ mice (8 weeks old). Tumor-bearing mice were administered with the carrier (n=8) or PRG-N-01 (20 mg/kg; n=8) by intraperitoneal injection for 5 weeks (3 times per week). Every week, the tumor volume and body weight were measured. After termination of the experiment in each group, mice were dissected, and tumor tissues were isolated.
To examine the in vivo effect of PRG-N-01, NF2 model mouse-derived schwannoma cells were allografted to 8-week-old mice, and PRG-N-01 was administered by intraperitoneal injection (20 mg/kg, 3 times a week).

HEI-193 cells [4] = experiment: MTT cell viability assay in HEI-193 cells; format: cell-based, human; conditions: indicated concentrations, 7 days (FIG. 5A)
Description: To measure cell viability, MTT (3-(4,5-dimethylthiazol-2-yl)-2,5-diphenyltetrazolium bromide) assay was used. In other words, the cells were seeded in 96-well plates and treated with the indicated chemicals for a predetermined time. After removing the medium, 200 μl of MTT solution (0.5 mg/ml) dissolved in PBS was added to each well. Plates were then cultured at 37° C. for 4 hours, the MTT solution was removed, the precipitated substances were dissolved using a solution (DMSO:ethanol=1:1), and an amount of formazan dye produced was quantified by measuring the absorbance at 560 nm using an ELISA microplate reader (Thermo Fisher Scientific, MA, USA).

[5] = isolated allograft tumors, RT-PCR (FIG. 17E)

SMILES: CCN(CC)CCOc1ccc(-c2nnn(Cc3ccc(OC)cc3)c2N)cc1 [PRG-N-01, 4-(4-(2-(diethylamino)ethoxy)phenyl)-1-(4-methoxybenzyl)-1H-1,2,3-triazol-5-amino]
- chemical effect (antiproliferating effect, RKIP induction, p-Erk suppression) [1]: no chemical effect
- schwann cell markers (FACS analysis) (HEI-193 cells [2]): clearly increased schwann cell markers compared to TEW7197
- expression of other stem cell factors (c-Myc, Nanog, Oct4) (HEI-193 cells [3]; 4 days, Western blot (FIG. 14A)): not altered
- expression of SOX2 (stem cell marker) at the protein level (HEI-193 cells [3]; Western blot (FIG. 12E)): reduced
- SOX2 mRNA in tumor tissues (mouse schwannoma cells; [5]): reduction
- schwann cell markers and SOX10 mRNA in tumor tissues (mouse schwannoma cells; [5]): induction
- RKIP, schwann cell markers (PLP, MBP, MPZ) and SOX10 at the protein level in tumor tissues (mouse schwannoma cells; isolated allograft tumors, immunoblotting (FIG. 17D)): induction
- tumor growth (mouse schwannoma cells; mouse schwannoma allograft in FVB/NJ mice, 20 mg/kg i.p., 3 times a week, 5 weeks): inhibited tumor growth
- tumor size and weight (mouse schwannoma cells; mouse schwannoma allograft, 20 mg/kg i.p., 3 times a week, 5 weeks (FIGS. 17B, 17C)): obviously suppressed
- antiproliferative effect in NF2 cells (MTT) (HEI-193 cells [4]): obvious antiproliferative effect
